SMILES strings stand for the structures.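 All cell lines were grown in 96-well plates and treated with compound for 48 hours. TGI: concentration producing complete growth inhibition.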 Some results are limits rather than exact numbers.

In one experiment the test system is NCI-H226 lung. The experiment in a line: growth of human tumour cells (NCI), 48 h.
With `COC1(OC)c2occc2C(=N)c2ccc(=O)oc21`, the TGI was above 100 µM.
Still for that read-out and setting: then `O=c1[nH]c2[nH]c(=S)[nH]c(=S)c2[nH]1`, with above 100 µM; and `CN=c1sc2c(n1C)C(=O)c1ccccc1C2=O`, with 5.65 µM.

A further experiment relates to UO-31 renal. Kind of experiment: growth of human tumour cells (NCI), 48 h.
Consider `COC1(OC)c2occc2C(=N)c2ccc(=O)oc21`, for which the TGI was above 100 µM.
Same read-out and setting: then `O=c1[nH]c2[nH]c(=S)[nH]c(=S)c2[nH]1`, with above 100 µM; and `CN=c1sc2c(n1C)C(=O)c1ccccc1C2=O`, with 19.6 µM; and `COC(=O)c1cc(S(=O)(=O)NC2=NCC(C)NN2)c(S)cc1Cl` (centres undefined), with above 100 µM.

For another experiment, the system named is NCI-H522 lung. Kind of experiment: growth of human tumour cells (NCI), 48 h.
Compound `COC1(OC)c2occc2C(=N)c2ccc(=O)oc21` showed a TGI above 100 µM.
Turning to `O=c1[nH]c2[nH]c(=S)[nH]c(=S)c2[nH]1`, the TGI is above 100 µM.
On the same count and under the same terms, under `CN=c1sc2c(n1C)C(=O)c1ccccc1C2=O` stands 29.4 µM; under `COC(=O)c1cc(S(=O)(=O)NC2=NCC(C)NN2)c(S)cc1Cl` (centres undefined), 47.5 µM.

For the next experiment, the system named is K-562 leukemia. Kind of experiment: growth of human tumour cells (NCI), 48 h.
`COC1(OC)c2occc2C(=N)c2ccc(=O)oc21` yielded a TGI above 100 µM.
In turn, `O=c1[nH]c2[nH]c(=S)[nH]c(=S)c2[nH]1` showed a TGI above 100 µM.
Still for that read-out and setting: under `CN=c1sc2c(n1C)C(=O)c1ccccc1C2=O` stands 12.2 µM; under `COC(=O)c1cc(S(=O)(=O)NC2=NCC(C)NN2)c(S)cc1Cl` (centres undefined), above 100 µM.

For another experiment, the system named is A498 renal. Kind of experiment: growth of human tumour cells (NCI), 48 h.
`COC1(OC)c2occc2C(=N)c2ccc(=O)oc21` registered a TGI above 100 µM.
Still for that read-out and setting: under `O=c1[nH]c2[nH]c(=S)[nH]c(=S)c2[nH]1` stands above 100 µM; under `CN=c1sc2c(n1C)C(=O)c1ccccc1C2=O`, 30.1 µM.
Consider `COC(=O)c1cc(S(=O)(=O)NC2=NCC(C)NN2)c(S)cc1Cl` (centres undefined), for which the TGI came to 72.8 µM.

For the next experiment, the system named is OVCAR-5 ovarian. The experiment in a line: growth of human tumour cells (NCI), 48 h.
For the compound `COC1(OC)c2occc2C(=N)c2ccc(=O)oc21`, the TGI was above 100 µM.
Still for that read-out and setting: then `O=c1[nH]c2[nH]c(=S)[nH]c(=S)c2[nH]1`, with above 100 µM.
Same read-out and setting: then `CN=c1sc2c(n1C)C(=O)c1ccccc1C2=O`, with 9.26 µM; and `COC(=O)c1cc(S(=O)(=O)NC2=NCC(C)NN2)c(S)cc1Cl` (centres undefined), with above 100 µM.

For a further experiment, the system named is NCI-H23 lung. The experiment in a line: growth of human tumour cells (NCI), 48 h.
`COC1(OC)c2occc2C(=N)c2ccc(=O)oc21` registered a TGI above 100 µM.
On the same count and under the same terms, under `O=c1[nH]c2[nH]c(=S)[nH]c(=S)c2[nH]1` stands above 100 µM; under `CN=c1sc2c(n1C)C(=O)c1ccccc1C2=O`, 2.38 µM; under `COC(=O)c1cc(S(=O)(=O)NC2=NCC(C)NN2)c(S)cc1Cl` (centres undefined), above 100 µM.

Another experiment deals with NCI/ADR-RES ovarian. Kind of experiment: growth of human tumour cells (NCI), 48 h.
`O=c1[nH]c2[nH]c(=S)[nH]c(=S)c2[nH]1` yielded a TGI above 100 µM.
In turn, `CN=c1sc2c(n1C)C(=O)c1ccccc1C2=O` displayed a TGI of 16.4 µM.
Still for that read-out and setting: under `COC(=O)c1cc(S(=O)(=O)NC2=NCC(C)NN2)c(S)cc1Cl` (centres undefined) stands above 100 µM.

The subject of a further experiment is T-47D breast. The experiment in a line: growth of human tumour cells (NCI), 48 h.
Compound `COC1(OC)c2occc2C(=N)c2ccc(=O)oc21` returned a TGI above 100 µM.
Same read-out and setting: then `O=c1[nH]c2[nH]c(=S)[nH]c(=S)c2[nH]1`, with above 100 µM; and `CN=c1sc2c(n1C)C(=O)c1ccccc1C2=O`, with 17.5 µM.

The test system of a further experiment is SK-MEL-28 melanoma. Kind of experiment: growth of human tumour cells (NCI), 48 h.
In turn, `COC1(OC)c2occc2C(=N)c2ccc(=O)oc21` showed a TGI above 100 µM.
Still for that read-out and setting: under `O=c1[nH]c2[nH]c(=S)[nH]c(=S)c2[nH]1` stands above 100 µM.
Same read-out and setting: then `CN=c1sc2c(n1C)C(=O)c1ccccc1C2=O`, with 3.61 µM; and `COC(=O)c1cc(S(=O)(=O)NC2=NCC(C)NN2)c(S)cc1Cl` (centres undefined), with above 100 µM.

The test system of a further experiment is IGROV1 ovarian. Kind of experiment: growth of human tumour cells (NCI), 48 h.
For `COC1(OC)c2occc2C(=N)c2ccc(=O)oc21`, the TGI is above 100 µM.
The same measure, in the same setting: under `O=c1[nH]c2[nH]c(=S)[nH]c(=S)c2[nH]1` stands above 100 µM.
Turning to `CN=c1sc2c(n1C)C(=O)c1ccccc1C2=O`, the TGI was above 41.6 µM.
Same read-out and setting: then `COC(=O)c1cc(S(=O)(=O)NC2=NCC(C)NN2)c(S)cc1Cl` (centres undefined), with above 100 µM.

The next experiment deals with HCT-15 colon. Kind of experiment: growth of human tumour cells (NCI), 48 h.
With `COC1(OC)c2occc2C(=N)c2ccc(=O)oc21`, the TGI was above 100 µM.
Same read-out and setting: then `O=c1[nH]c2[nH]c(=S)[nH]c(=S)c2[nH]1`, with above 100 µM; and `CN=c1sc2c(n1C)C(=O)c1ccccc1C2=O`, with 4.82 µM.
On the same count and under the same terms, under `COC(=O)c1cc(S(=O)(=O)NC2=NCC(C)NN2)c(S)cc1Cl` (centres undefined) stands above 100 µM.

For the next experiment, the system named is MDA-MB-435. Kind of experiment: growth of human tumour cells (NCI), 48 h.
`COC1(OC)c2occc2C(=N)c2ccc(=O)oc21`: the TGI is above 100 µM.
The same measure, in the same setting: under `O=c1[nH]c2[nH]c(=S)[nH]c(=S)c2[nH]1` stands above 100 µM; under `CN=c1sc2c(n1C)C(=O)c1ccccc1C2=O`, 0.374 µM; under `COC(=O)c1cc(S(=O)(=O)NC2=NCC(C)NN2)c(S)cc1Cl` (centres undefined), above 100 µM.

The subject of the next experiment is MOLT-4 leukemia. Kind of experiment: growth of human tumour cells (NCI), 48 h.
The compound `COC1(OC)c2occc2C(=N)c2ccc(=O)oc21` had a TGI above 100 µM.
`O=c1[nH]c2[nH]c(=S)[nH]c(=S)c2[nH]1` gave a TGI above 100 µM.
On the same count and under the same terms, then `CN=c1sc2c(n1C)C(=O)c1ccccc1C2=O`, with 26.5 µM; and `COC(=O)c1cc(S(=O)(=O)NC2=NCC(C)NN2)c(S)cc1Cl` (centres undefined), with above 100 µM.

The test system of another experiment is HT29 colon. Kind of experiment: growth of human tumour cells (NCI), 48 h.
The compound `COC1(OC)c2occc2C(=N)c2ccc(=O)oc21` registered a TGI above 100 µM.

(Values after PubChem BioAssay (NCI).)
